Measurements published in paper PMC7774954, “Interactomic affinity profiling by holdup assay: Acetylation and distal residues impact the PDZome-binding specificity of PTEN phosphatase” (PLoS ONE, 2020).

Assays:
MAGI2 PDZ 3 = target: T1, MAGI2 PDZ 3 (Homo sapiens, UniProt Q86UL8); assay: Holdup assay, MAGI2-3; type: binding
T1 construct: made in house; host or cells: E. coli
Experimental: (§1) The holdup assay was performed on a Tecan freedom Evo200 robot with 384-well plates in singlicate for the three 11-mer PTEN variants and the 13-mer PTEN peptide as described in [31, 32]. Briefly, prior to interaction assay, 2.5 μL of streptavidin resin was saturated in each well with 20 μL of biotinylated PBM peptides (42 μM) and then washed twice with an excess of free biotin, while the reference resin was incubated only with biotin. Right before the holdup experiment, the PDZ library was spiked with an internal standard of lysozyme. Then, the biotin- or PBM-saturated resin was incubated, each in a distinct well of a 384-well plate, with complete cell lysates diluted so that the concentration of the tag-PDZ present in the crude extract is adjusted at 4 μM. After a sufficient time to reach complex equilibrium (15 min.), a fast and mild filtration step is performed and the tag-PDZ concentrations were measured by capillary electrophoresis instrument (LabChip GXII, PerkinElmer, Massachusets, USA). Standard markers were used to convert migration time into molecular weight on the LabChip software and inappropriate molecular weight markers were corrected or excluded.
(§2) For filtered data, the BI was extracted with the following equation (Eq 1) that estimates the depleted fraction after superimposition of the sample and reference electropherograms: BI=Iref−Ilig/Iref (1) where Iref and Ilig are the intensities of the tag-PDZ peaks measured, for each PDZ domain/PBM peptide interaction pair, in the biotin reference and the PBM electropherograms, respectively.
(§3) BIs were transformed into dissociation constants (KD) using the following formula: KD=([PDZtot]−BI·[PDZtot])·([PBMtot]−BI·[PDZtot])/BI·[PDZtot] (2) where [PDZtot] and [PBMtot] correspond to the total concentrations of the PDZ domain (usually around 4 μM) and the PBM peptide used during the assay. Since the PBMtot concentration in the resin during the holdup assay parameter may differ from one peptide to another and remains unknown, it is impossible to directly convert BI values into KD constants. We systematically determined the KD constants for a subset of PDZ/PBM pairs by competitive FP. […] For each PBM, the average peptide concentration was calculated after outlier rejection based on the absolute distances from the median as compared to three times the standard deviation (3σ rule), with never more than 2 values rejected.

NHERF2 PDZ 2 = target: T2, NHERF2 PDZ 2 (Homo sapiens, UniProt Q15599); assay: Holdup assay, NHERF2-2; type: binding; details: PDZ domain NHERF2-2 (gene MPDZ, 9)
T2 construct: made in house; host or cells: E. coli
T2 sequence (Q15599 150-230 limits assumed): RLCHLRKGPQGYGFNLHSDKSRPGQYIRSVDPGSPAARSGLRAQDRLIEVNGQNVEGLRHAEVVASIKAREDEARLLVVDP
Experimental: as §1, §2, §3

ARHGEF11-1 = target: T3, ARHGEF11-1 (Homo sapiens, UniProt O15085); assay: Holdup assay, ARHGEF11-1; type: binding
T3 sequence (O15085 47-126): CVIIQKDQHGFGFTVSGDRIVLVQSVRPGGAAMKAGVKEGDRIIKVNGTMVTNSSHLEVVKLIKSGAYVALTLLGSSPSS

DLG2-2 = DLG2-2 (Homo sapiens, UniProt Q15700); assay: Holdup assay, DLG2-2; type: binding
Sequence of DLG2-2 (Q15700 193-280): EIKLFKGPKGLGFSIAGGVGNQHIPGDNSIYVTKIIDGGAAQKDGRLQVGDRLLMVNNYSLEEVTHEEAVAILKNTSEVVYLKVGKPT

DLG3-2 = target: T4, DLG3-2 (Homo sapiens, UniProt Q92796); assay: Holdup assay, DLG3-2; type: binding
T4 sequence (Q92796 244-330): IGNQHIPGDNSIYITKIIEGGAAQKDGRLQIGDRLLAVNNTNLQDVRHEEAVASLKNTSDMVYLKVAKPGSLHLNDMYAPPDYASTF

FRMPD2-3 = assay: Holdup assay, FRMPD2-3; type: binding, human
GIPC1-1 = assay: Holdup assay, GIPC1-1; type: binding, human
GORASP1-1 = GORASP1-1 (Homo sapiens, UniProt Q9BQQ3); assay: Holdup assay, GORASP1-1; type: binding
Sequence of GORASP1-1 (Q9BQQ3 2-440): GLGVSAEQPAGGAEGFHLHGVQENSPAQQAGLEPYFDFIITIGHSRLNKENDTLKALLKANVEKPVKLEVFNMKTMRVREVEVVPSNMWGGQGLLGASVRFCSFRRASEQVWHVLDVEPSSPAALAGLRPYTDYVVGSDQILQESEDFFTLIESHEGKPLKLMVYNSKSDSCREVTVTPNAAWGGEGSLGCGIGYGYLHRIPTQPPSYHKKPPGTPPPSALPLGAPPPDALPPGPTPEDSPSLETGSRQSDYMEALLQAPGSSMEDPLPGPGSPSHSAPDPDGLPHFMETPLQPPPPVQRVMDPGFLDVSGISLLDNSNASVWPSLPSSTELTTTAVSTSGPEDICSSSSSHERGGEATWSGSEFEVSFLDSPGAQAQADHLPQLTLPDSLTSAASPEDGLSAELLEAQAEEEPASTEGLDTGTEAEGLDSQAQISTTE

GRIP1-3 = assay: Holdup assay, GRIP1-3; type: binding, human
GRIP1-6 = assay: Holdup assay, GRIP1-6; type: binding, human
GRIP1-7 = assay: Holdup assay, GRIP1-7; type: binding, human
IL16-2 = assay: Holdup assay, IL16-2; type: binding, human
INADL-4 = assay: Holdup assay, INADL-4; type: binding, human
LIN7C-1 = assay: Holdup assay, LIN7C-1; type: binding, human
MAGI1-6 = assay: Holdup assay, MAGI1-6; type: binding, human
MAGI3-4 = assay: Holdup assay, MAGI3-4; type: binding, human
MAGIX-1 = assay: Holdup assay, MAGIX-1; type: binding, human
MPDZ-1 = assay: Holdup assay, MPDZ-1; type: binding, human

T1 sequence (Q86UL8 605-683 limits assumed): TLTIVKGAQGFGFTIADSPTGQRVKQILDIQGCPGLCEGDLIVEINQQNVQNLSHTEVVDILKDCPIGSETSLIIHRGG

`CC[C@H](C)[C@H](NC(=O)[C@H](CCC(N)=O)NC(=O)[C@@H](NC(=O)[C@H](Cc1c[nH]cn1)NC(=O)[C@H](CCC(N)=O)NC(=O)[C@H](CC(=O)O)NC(=O)[C@H](CCC(=O)O)NC(=O)[C@H](CC(=O)O)NC(=O)CCC(=O)NCCCOCCOCCOCCCNC(=O)CCCC[C@@H]1SC[C@@H]2NC(=O)N[C@@H]21)[C@@H](C)O)C(=O)N[C@H](C(=O)N[C@@H](CCCCNC(C)=O)C(=O)N[C@H](C(=O)O)C(C)C)[C@@H](C)O` [PTEN_Ac] showed a Kd (MAGI2 PDZ 3) of 15.3 µM, a BI (MAGI2 PDZ 3; MAGI2-3) of 0.625 and a BI (NHERF2 PDZ 2) of 0.066. For the same compound, the BI (ARHGEF11-1) was 0.428, the Kd (ARHGEF11-1) was 35.1 µM and the BI (DLG2-2) was 0.329. The Kd (DLG2-2) was 54.4 µM, the BI (DLG3-2) was 0.445 and the Kd (DLG3-2) was 32.7 µM. It also gave a BI (FRMPD2-3) of -0.064, a LogKD (FRMPD2-3) of 3.605 and a BI (GIPC1-1) of 0.035. For the same compound, the LogKD (GIPC1-1) was 3.605, the BI (GORASP1-1) was 0.151 and the BI (GRIP1-3) was 0.02. It also gave a LogKD (GRIP1-3) of 3.605, a BI (GRIP1-6) of -0.056 and a LogKD (GRIP1-6) of 3.605. It also gave a BI (GRIP1-7) of -0.071, a LogKD (GRIP1-7) of 3.605 and a BI (IL16-2) of -0.157. For the same compound, the LogKD (IL16-2) was 3.605, the BI (INADL-4) was -0.106 and the LogKD (INADL-4) was 3.605. For the same compound, the BI (LIN7C-1) was 0.012, the LogKD (LIN7C-1) was 3.605 and the BI (MAGI1-6) was 0.096. The LogKD (MAGI1-6) was 3.605, the BI (MAGI3-4) was -0.101 and the LogKD (MAGI3-4) was 3.605. It also gave a BI (MAGIX-1) of -0.034, a LogKD (MAGIX-1) of 3.605 and a BI (MPDZ-1) of 0.074. The LogKD (MPDZ-1) was 3.605.
